In PubChem BioAssay (NCI):
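Briefly, cells in 96-well plates were exposed to five compound concentrations for 48 h, and endpoints were estimated by linear interpolation. The concentration for 50% growth inhibition is given as GI50. At the TGI there is no net growth.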

Tested on: EKVX NSCLC
Test: inhibition of tumour cell growth, NCI panel, 48 h

Row | SMILES | TGI
1 | COc1ccc(/C=N/NC(=O)c2ccc(O)c(CN(C)C)c2)cc1 | > 100 µM

Tested on: HT29 colon
Test: inhibition of tumour cell growth, NCI panel, 48 h

Row | SMILES | TGI | GI50
2 | CCCCOCCOC1=C(Cl)C(=O)c2c(O)ccc(O)c2C1=O | 2.16 µM | –
3 | CC1=C(C#N)c2nc3ccccc3n2C(=O)C1(C)CCO (stereo not given) | > 100 µM | –
4 | COc1ccc(C(=O)NCCN(C)C)c2nc3ccccc3cc12 | 5.6 µM | –
5 | Cc1ccc(/C=C2/N=C(N/N=C\C(O)C(O)C(O)C(O)CO)NC2=O)cc1 (stereo not given) | > 100 µM | –
6 | CCN(C(=O)N[C@@H](C)C(=O)N[C@@H](Cc1ccccc1)C(=O)OC)c1ccccc1 | > 100 µM | –
7 | COc1cccc2c1OC(c1cccc3ccccc13)C([N+](=O)[O-])=C2 (stereo not given) | 4.5 µM | –
8 | O=C(CCSC1=NCCCN1)c1ccc(F)cc1 | 40.5 µM | –
9 | Cn1c2ccccc2c2c(=S)c3ccccc3ccc21 | > 100 µM | –
10 | CCOc1c(OC)cc(-c2nc3n(n2)C(=O)C(CC)S3)cc1OC (stereo not given) | > 10 µM | –
11 | CC1OC(O[C@H]2C3C=CO[C@@H](OC4OC(CO)C(O)C(O)C4O)C3[C@@]3(COC(=O)/C=C/c4ccccc4)O[C@@H]23)C(O)C(O)C1O (stereo not given in full) | > 100 µM | –
12 | Cc1nc2ccccc2c(-n2cccn2)c1CCn1cccn1 | > 100 µM | –
13 | COc1cc2c(cc1OCCCCCN1CCN(c3ncnc4ccccc34)CC1)N=CC1CCCN1C2=O (stereo not given) | 10.8 µM | 27.5 nM
14 | C/C1=C\[C@H](C)C[C@H](C)OC(=O)[C@H](C)NC(=O)[C@@H](Cc2ccc(O)c(Br)c2)N(C)C(=O)[C@H](C)NC(=O)[C@@H](C)C1 | > 3.13 µM | –
15 | COc1cc2c(cc1OCCCN1C(=O)c3cccc4cccc(c34)C1=O)N=C[C@@H]1CCCN1C2=O | > 100 µM | –
16 | COC(=O)c1ccccc1CC1Cc2cccc(C)c2C1=O (stereo not given) | 58.3 µM | –
17 | COc1ccc(/C=N/NC(=O)c2ccc(O)c(CN(C)C)c2)cc1 | > 100 µM | –

Tested on: NCI-H522 lung
Test: inhibition of tumour cell growth, NCI panel, 48 h

Row | SMILES | TGI
18 | CCCCOCCOC1=C(Cl)C(=O)c2c(O)ccc(O)c2C1=O | 1.33 µM
19 | CC1=C(C#N)c2nc3ccccc3n2C(=O)C1(C)CCO (stereo not given) | > 100 µM
20 | COc1ccc(C(=O)NCCN(C)C)c2nc3ccccc3cc12 | 2.6 µM
21 | Cc1ccc(/C=C2/N=C(N/N=C\C(O)C(O)C(O)C(O)CO)NC2=O)cc1 (stereo not given) | > 100 µM
22 | CCN(C(=O)N[C@@H](C)C(=O)N[C@@H](Cc1ccccc1)C(=O)OC)c1ccccc1 | > 100 µM
23 | COc1cccc2c1OC(c1cccc3ccccc13)C([N+](=O)[O-])=C2 (stereo not given) | 3.21 µM
24 | O=C(CCSC1=NCCCN1)c1ccc(F)cc1 | 3.86 µM
25 | Cn1c2ccccc2c2c(=S)c3ccccc3ccc21 | > 100 µM
26 | CCOc1c(OC)cc(-c2nc3n(n2)C(=O)C(CC)S3)cc1OC (stereo not given) | > 10 µM
27 | CC1OC(O[C@H]2C3C=CO[C@@H](OC4OC(CO)C(O)C(O)C4O)C3[C@@]3(COC(=O)/C=C/c4ccccc4)O[C@@H]23)C(O)C(O)C1O (stereo not given in full) | > 100 µM
28 | Cc1nc2ccccc2c(-n2cccn2)c1CCn1cccn1 | > 100 µM
29 | COc1cc2c(cc1OCCCCCN1CCN(c3ncnc4ccccc34)CC1)N=CC1CCCN1C2=O (stereo not given) | 0.0269 µM
30 | C/C1=C\[C@H](C)C[C@H](C)OC(=O)[C@H](C)NC(=O)[C@@H](Cc2ccc(O)c(Br)c2)N(C)C(=O)[C@H](C)NC(=O)[C@@H](C)C1 | 1.35 µM
31 | COc1cc2c(cc1OCCCN1C(=O)c3cccc4cccc(c34)C1=O)N=C[C@@H]1CCCN1C2=O | 27.9 µM
32 | COC(=O)c1ccccc1CC1Cc2cccc(C)c2C1=O (stereo not given) | 57.2 µM
33 | COc1ccc(/C=N/NC(=O)c2ccc(O)c(CN(C)C)c2)cc1 | 90.3 µM

Tested on: NCI/ADR-RES ovarian
Test: inhibition of tumour cell growth, NCI panel, 48 h

Row | SMILES | TGI | GI50
34 | CCCCOCCOC1=C(Cl)C(=O)c2c(O)ccc(O)c2C1=O | 9.14 µM | –
35 | CC1=C(C#N)c2nc3ccccc3n2C(=O)C1(C)CCO (stereo not given) | > 100 µM | –
36 | COc1ccc(C(=O)NCCN(C)C)c2nc3ccccc3cc12 | 5.22 µM | –
37 | Cc1ccc(/C=C2/N=C(N/N=C\C(O)C(O)C(O)C(O)CO)NC2=O)cc1 (stereo not given) | > 100 µM | –
38 | CCN(C(=O)N[C@@H](C)C(=O)N[C@@H](Cc1ccccc1)C(=O)OC)c1ccccc1 | > 100 µM | –
39 | COc1cccc2c1OC(c1cccc3ccccc13)C([N+](=O)[O-])=C2 (stereo not given) | 7.29 µM | –
40 | O=C(CCSC1=NCCCN1)c1ccc(F)cc1 | > 91.5 µM | –
41 | Cn1c2ccccc2c2c(=S)c3ccccc3ccc21 | > 100 µM | –
42 | CCOc1c(OC)cc(-c2nc3n(n2)C(=O)C(CC)S3)cc1OC (stereo not given) | > 10 µM | –
43 | CC1OC(O[C@H]2C3C=CO[C@@H](OC4OC(CO)C(O)C(O)C4O)C3[C@@]3(COC(=O)/C=C/c4ccccc4)O[C@@H]23)C(O)C(O)C1O (stereo not given in full) | > 100 µM | –
44 | Cc1nc2ccccc2c(-n2cccn2)c1CCn1cccn1 | > 100 µM | –
45 | COc1cc2c(cc1OCCCCCN1CCN(c3ncnc4ccccc34)CC1)N=CC1CCCN1C2=O (stereo not given) | > 36.4 µM | 378 nM
46 | C/C1=C\[C@H](C)C[C@H](C)OC(=O)[C@H](C)NC(=O)[C@@H](Cc2ccc(O)c(Br)c2)N(C)C(=O)[C@H](C)NC(=O)[C@@H](C)C1 | > 19.8 µM | –
47 | COc1cc2c(cc1OCCCN1C(=O)c3cccc4cccc(c34)C1=O)N=C[C@@H]1CCCN1C2=O | > 100 µM | –
48 | COC(=O)c1ccccc1CC1Cc2cccc(C)c2C1=O (stereo not given) | > 100 µM | –
49 | COc1ccc(/C=N/NC(=O)c2ccc(O)c(CN(C)C)c2)cc1 | > 100 µM | –

Tested on: RXF 393 renal
Test: inhibition of tumour cell growth, NCI panel, 48 h

Row | SMILES | TGI | GI50
50 | CCCCOCCOC1=C(Cl)C(=O)c2c(O)ccc(O)c2C1=O | 0.668 µM | –
51 | CC1=C(C#N)c2nc3ccccc3n2C(=O)C1(C)CCO (stereo not given) | > 100 µM | –
52 | COc1ccc(C(=O)NCCN(C)C)c2nc3ccccc3cc12 | 6.67 µM | –
53 | Cc1ccc(/C=C2/N=C(N/N=C\C(O)C(O)C(O)C(O)CO)NC2=O)cc1 (stereo not given) | > 100 µM | –
54 | CCN(C(=O)N[C@@H](C)C(=O)N[C@@H](Cc1ccccc1)C(=O)OC)c1ccccc1 | > 100 µM | –
55 | COc1cccc2c1OC(c1cccc3ccccc13)C([N+](=O)[O-])=C2 (stereo not given) | 2.58 µM | –
56 | O=C(CCSC1=NCCCN1)c1ccc(F)cc1 | 33 µM | –
57 | Cn1c2ccccc2c2c(=S)c3ccccc3ccc21 | > 100 µM | –
58 | CCOc1c(OC)cc(-c2nc3n(n2)C(=O)C(CC)S3)cc1OC (stereo not given) | > 10 µM | –
59 | CC1OC(O[C@H]2C3C=CO[C@@H](OC4OC(CO)C(O)C(O)C4O)C3[C@@]3(COC(=O)/C=C/c4ccccc4)O[C@@H]23)C(O)C(O)C1O (stereo not given in full) | > 100 µM | –
60 | Cc1nc2ccccc2c(-n2cccn2)c1CCn1cccn1 | > 100 µM | –
61 | COc1cc2c(cc1OCCCCCN1CCN(c3ncnc4ccccc34)CC1)N=CC1CCCN1C2=O (stereo not given) | 0.0454 µM | 25.3 nM
62 | C/C1=C\[C@H](C)C[C@H](C)OC(=O)[C@H](C)NC(=O)[C@@H](Cc2ccc(O)c(Br)c2)N(C)C(=O)[C@H](C)NC(=O)[C@@H](C)C1 | 0.858 µM | –
63 | COc1cc2c(cc1OCCCN1C(=O)c3cccc4cccc(c34)C1=O)N=C[C@@H]1CCCN1C2=O | 34.2 µM | –
64 | COC(=O)c1ccccc1CC1Cc2cccc(C)c2C1=O (stereo not given) | 63.7 µM | –
65 | COc1ccc(/C=N/NC(=O)c2ccc(O)c(CN(C)C)c2)cc1 | > 100 µM | –

Tested on: SK-MEL-28 melanoma
Test: inhibition of tumour cell growth, NCI panel, 48 h

Row | SMILES | TGI | GI50
66 | CCCCOCCOC1=C(Cl)C(=O)c2c(O)ccc(O)c2C1=O | 1.23 µM | –
67 | CC1=C(C#N)c2nc3ccccc3n2C(=O)C1(C)CCO (stereo not given) | > 100 µM | –
68 | COc1ccc(C(=O)NCCN(C)C)c2nc3ccccc3cc12 | 7.11 µM | –
69 | Cc1ccc(/C=C2/N=C(N/N=C\C(O)C(O)C(O)C(O)CO)NC2=O)cc1 (stereo not given) | > 100 µM | –
70 | CCN(C(=O)N[C@@H](C)C(=O)N[C@@H](Cc1ccccc1)C(=O)OC)c1ccccc1 | 78.8 µM | –
71 | COc1cccc2c1OC(c1cccc3ccccc13)C([N+](=O)[O-])=C2 (stereo not given) | 2.87 µM | –
72 | O=C(CCSC1=NCCCN1)c1ccc(F)cc1 | 34.6 µM | –
73 | Cn1c2ccccc2c2c(=S)c3ccccc3ccc21 | > 100 µM | –
74 | CCOc1c(OC)cc(-c2nc3n(n2)C(=O)C(CC)S3)cc1OC (stereo not given) | > 10 µM | –
75 | CC1OC(O[C@H]2C3C=CO[C@@H](OC4OC(CO)C(O)C(O)C4O)C3[C@@]3(COC(=O)/C=C/c4ccccc4)O[C@@H]23)C(O)C(O)C1O (stereo not given in full) | > 100 µM | –
76 | Cc1nc2ccccc2c(-n2cccn2)c1CCn1cccn1 | > 100 µM | –
77 | COc1cc2c(cc1OCCCCCN1CCN(c3ncnc4ccccc34)CC1)N=CC1CCCN1C2=O (stereo not given) | 0.0569 µM | 26.4 nM
78 | C/C1=C\[C@H](C)C[C@H](C)OC(=O)[C@H](C)NC(=O)[C@@H](Cc2ccc(O)c(Br)c2)N(C)C(=O)[C@H](C)NC(=O)[C@@H](C)C1 | > 10.6 µM | –
79 | COc1cc2c(cc1OCCCN1C(=O)c3cccc4cccc(c34)C1=O)N=C[C@@H]1CCCN1C2=O | > 100 µM | –
80 | COC(=O)c1ccccc1CC1Cc2cccc(C)c2C1=O (stereo not given) | 94.5 µM | –
81 | COc1ccc(/C=N/NC(=O)c2ccc(O)c(CN(C)C)c2)cc1 | > 100 µM | –
